{"source": "patent US9345655B2", "about": "“Oral care compositions” (BRIGHAM YOUNG UNIVERSITY, priority 2011, dated 2016)", "key": {"bacterial culture": {"tested_on": "bacterial culture", "test": "Minimum inhibitory concentration (MIC), serial 2-fold dilution in 96-well plate", "assay_type": "cell-based", "conditions": "overnight incubation in TSB, inoculum 0.2 OD", "procedure": "To evaluate minimum inhibitory concentrations (MICs), the concentration of the twenty four hour culture in log phase is adjusted by diluting in tryptic soy broth (TSB) so that an optical density of 0.2 at 610nm is obtained. The bacterial culture is then ready to be used for testing.\nThree solutions are prepared: (1) 1% CPC solution in ethanol; (2) 1% solution of the Compound of Formula (II) in water; and (3) 0.5% of a Compound of Formula (II) +0.5% CPC. The solutions are diluted 1:9 in TSB. They are added to a 96-well plate and a serial dilution (2-fold) is made across the plate. The bacterial inoculum at 0.2 OD, 1000, is added to every well. The plate is incubated overnight and read on a plate reader the following day."}, "IL-1B": {"tested_on": "IL-1B", "test": "Anti-inflammatory activity, cytokine generation in HKPG-stimulated U937 macrophages", "assay_type": "cell-based, Human", "conditions": "0.1 ppm; U937 macrophages stimulated with heat killed P. gingivalis", "from_the_text": "(§1) The anti-inflammatory activity of a compound of Formula (II) is studied against six human inflammatory cytokines, PGE2, IL-1B, IL-6, IL-8, TNF-a, and GM-CSF in separate sets of experiments; first against PGE2, then against the five other cytokines Human monocyte U937 cells are differentiated to macrophages and then generation of cytokines is induced by stimulating the cells using heat killed P. gingivalis (HKPG, 1×10^8 cells). Different types of inflammatory cytokines are generated by U973 cells and released into the supernatant."}, "IL-6": {"tested_on": "IL-6", "test": "Anti-inflammatory activity, cytokine generation in HKPG-stimulated U937 macrophages", "assay_type": "cell-based, Human", "conditions": "0.1 ppm; U937 macrophages stimulated with heat killed P. gingivalis", "from_the_text": "as §1"}, "TNF-a": {"tested_on": "TNF-a", "test": "Anti-inflammatory activity, cytokine generation in HKPG-stimulated U937 macrophages", "assay_type": "cell-based, Human", "conditions": "0.1 ppm; U937 macrophages stimulated with heat killed P. gingivalis", "from_the_text": "as §1"}}}
{"molecule": "CCCCCCCCNCCC[C@@H](C)[C@H]1CC[C@H]2C3[C@H](OCCCN)CC4C[C@H](OCCCN)CC[C@]4(C)[C@H]3C[C@H](OCCCN)[C@]12C", "note": "(stereo partly shown) [Compound of Formula (II)]", "values": [{"measurement": "MIC", "setting": "bacterial culture", "value": 0.49, "unit": "µg/mL"}, {"measurement": "reduction of IL-10 (so in the source)", "setting": "IL-1B", "value": 21, "unit": "%"}, {"measurement": "reduction of IL-6", "setting": "IL-6", "value": 60, "unit": "%"}, {"measurement": "reduction of TNF-a", "setting": "TNF-a", "value": 80, "unit": "%"}]}
